Counter-ions that a name gives are not always drawn.
Legend:
[1] = Physical properties on exposure to moisture in room air; format: physicochemical; details: normal room air
Text: It is also an advantage in that the compounds of the present invention have preferred physical properties as compared to compounds known in the art. […] In contrast, NIL, which is disclosed in WO 93/13055 when the hydrochloride salt can be isolated as a colorless crystal, but has the property of deliquescence. The compound quickly becomes a very viscous sticky oil upon exposure to moisture in normal room air which makes it difficult to handle.

[2] = target: Human inducible NOS (hiNOS) (Homo sapiens, UniProt P35228); assay: Citrulline assay for nitric oxide synthase, hiNOS; format: biochemical
Human inducible NOS (hiNOS), sequence (P35228 whole entry): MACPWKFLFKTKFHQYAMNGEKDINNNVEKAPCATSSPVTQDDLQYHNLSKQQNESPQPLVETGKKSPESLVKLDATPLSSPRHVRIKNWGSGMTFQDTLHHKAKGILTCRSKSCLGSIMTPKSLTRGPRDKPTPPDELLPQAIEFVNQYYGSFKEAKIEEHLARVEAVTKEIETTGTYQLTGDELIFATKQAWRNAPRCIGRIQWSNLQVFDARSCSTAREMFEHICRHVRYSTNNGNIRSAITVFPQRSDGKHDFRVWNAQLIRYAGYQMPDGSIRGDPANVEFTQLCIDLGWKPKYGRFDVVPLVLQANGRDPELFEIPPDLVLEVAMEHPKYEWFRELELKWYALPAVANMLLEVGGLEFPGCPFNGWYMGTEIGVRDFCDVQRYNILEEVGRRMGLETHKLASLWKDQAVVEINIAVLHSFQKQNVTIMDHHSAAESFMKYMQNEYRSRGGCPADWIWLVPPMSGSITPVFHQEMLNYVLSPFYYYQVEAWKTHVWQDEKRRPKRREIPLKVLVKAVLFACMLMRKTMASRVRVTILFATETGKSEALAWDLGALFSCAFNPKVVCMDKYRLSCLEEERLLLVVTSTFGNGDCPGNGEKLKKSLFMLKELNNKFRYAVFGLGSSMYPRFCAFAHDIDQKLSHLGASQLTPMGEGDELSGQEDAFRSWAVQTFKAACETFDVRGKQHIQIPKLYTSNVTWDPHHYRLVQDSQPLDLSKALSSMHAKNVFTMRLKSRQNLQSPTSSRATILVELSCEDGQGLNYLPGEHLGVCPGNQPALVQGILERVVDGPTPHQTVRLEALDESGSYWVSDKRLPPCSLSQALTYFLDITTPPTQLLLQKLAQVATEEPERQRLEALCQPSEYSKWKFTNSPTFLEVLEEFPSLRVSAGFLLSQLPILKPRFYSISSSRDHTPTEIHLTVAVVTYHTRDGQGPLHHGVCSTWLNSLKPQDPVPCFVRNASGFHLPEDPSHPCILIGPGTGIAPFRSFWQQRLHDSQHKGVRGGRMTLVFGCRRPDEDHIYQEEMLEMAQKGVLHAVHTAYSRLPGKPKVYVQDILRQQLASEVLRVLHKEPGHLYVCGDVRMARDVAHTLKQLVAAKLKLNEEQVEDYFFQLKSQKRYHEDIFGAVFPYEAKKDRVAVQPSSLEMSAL
Procedure: Citrulline Assay for Nitric Oxide Synthase Nitric oxide synthase activity was measured by monitoring the conversion of L-[2,3-3H]-arginine to L-[2,3-3H]-citrulline (1,2). […] For constitutive NOS, calmodulin was included at a final concentration of 40-100 nM. Following incubation at 37° C. for 15 minutes, the reaction was terminated by addition of 300 μL cold buffer containing 10 mM EGTA, 100 mM HEPES (pH5.5) and 1.0 mM L-citrulline. The [3H]-citrulline was separated by chromatography on Dowex 50W X-8 cation exchange resin and radioactivity quantified with a liquid scintillation counter.

| SMILES | physical form / behaviour on exposure to moisture [1] | Selectivity ([2]; hiNOS over hecNOS) | selectivity compared with NIL ([2]; in words) | IC50 ([2]; recombinant enzyme, L-arginine to L-citrulline conversion, 37° C., 15 minutes) |
| --- | --- | --- | --- | --- |
| CC(=N)NCCCC[C@H](N)C(=O)Nc1nnn[nH]1 [Example 1, 2S-amino-6-[(1-iminoethyl)amino]-N-(1H-tetrazol-5-yl) hexanamide, Hydrate, Dihydrochloride] | crystalline product | 113 | more selective than NIL | 21.4 µM |
| CC(N)=NCCCC[C@@H](N)C(=O)O [NIL, reference compound] | deliquescence | – | – | – |

From US6410542B1, “Aminotetrazole derivatives useful as nitric oxide synthase inhibitors” (G. D. Searle & Co., priority 1994, dated 2002)
